Activity calls are given as the source filed them.
How the values were obtained:
Large T antigen = Large T antigen (Simian virus 40, UniProt P03070); assay type: functional, Betapolyomavirus macacae;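 note: Confirmatory-stage PubChem screen for compounds that inhibit SV40 T antigen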
[1] = biological target: Dual specificity tyrosine-phosphorylation-regulated kinase 1A (Rattus norvegicus, UniProt Q63470); assay type: biochemical, Homo sapiens
[2] = biological target: T1, Rac GTPase-activating protein 1 (Homo sapiens, UniProt Q9H0H5); experiment: blockers of MgcRacGAP-driven Rac1 GTP hydrolysis – biochemical, ADP Hunter fluorescence, primary and confirmatory, confirmation (AID 624330); assay type: functional
T1 sequence (Q9H0H5 whole entry): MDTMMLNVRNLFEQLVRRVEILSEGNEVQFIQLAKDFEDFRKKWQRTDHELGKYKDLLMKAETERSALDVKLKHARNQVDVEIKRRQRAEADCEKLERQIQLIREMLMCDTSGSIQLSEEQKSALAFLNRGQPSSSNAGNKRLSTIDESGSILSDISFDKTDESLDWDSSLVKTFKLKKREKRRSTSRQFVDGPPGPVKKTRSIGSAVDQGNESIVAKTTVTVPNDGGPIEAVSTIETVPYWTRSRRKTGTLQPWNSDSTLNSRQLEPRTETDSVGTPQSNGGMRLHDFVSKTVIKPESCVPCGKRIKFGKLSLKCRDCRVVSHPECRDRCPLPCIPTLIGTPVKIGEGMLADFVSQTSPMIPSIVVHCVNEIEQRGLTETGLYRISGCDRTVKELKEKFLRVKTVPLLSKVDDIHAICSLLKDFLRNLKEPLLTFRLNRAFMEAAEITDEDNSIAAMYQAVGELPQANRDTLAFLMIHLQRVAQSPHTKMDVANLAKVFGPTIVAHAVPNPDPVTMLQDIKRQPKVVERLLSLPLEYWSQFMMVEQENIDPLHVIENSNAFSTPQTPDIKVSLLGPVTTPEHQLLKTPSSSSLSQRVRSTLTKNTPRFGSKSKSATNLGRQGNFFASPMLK

CHO = CHO cell viability loss, potency – luminescence, cytotoxicity control for TLR9-MyD88 binding inhibitor project, dose response (AID 588339); assay type: functional, cell-based, hamster; settings: Cricetulus griseus;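 note: CHO cells stably coexpressing TLR9 and MyD88 fusions from primary screen; compound exposure lasted 48 hours before viability readout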
Beta Lactamase = Beta Lactamase (Pseudomonas aeruginosa, UniProt Q932Y6); experiment: BLA reporter interference, concentration series – BLA reporter cells, FRET fluorescence, artefact control for TLR9-MyD88 binding inhibitor project, dose response (AID 588341); assay type: cell-based;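 note: cell based assay in CHO-K1 cells stably expressing beta-lactamase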
Chain of Beta Lactamase (Q932Y6 whole entry): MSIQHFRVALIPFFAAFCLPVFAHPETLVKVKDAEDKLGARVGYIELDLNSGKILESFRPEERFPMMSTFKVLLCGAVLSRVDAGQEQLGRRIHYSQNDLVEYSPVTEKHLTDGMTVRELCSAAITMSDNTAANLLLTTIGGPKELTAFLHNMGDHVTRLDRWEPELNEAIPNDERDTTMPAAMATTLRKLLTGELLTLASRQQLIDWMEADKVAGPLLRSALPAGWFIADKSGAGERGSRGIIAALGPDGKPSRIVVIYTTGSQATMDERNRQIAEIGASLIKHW

[3] = Luminescence Cell-Based Dose Response to Identify Activators of 5'UTR Stem-Loop Driven Prion Protein mRNA Translation in H4-C Neuroglioblastoma Cells. [Related pubchem assays: 1829 (Project Summary), 1814 (Primary HTS)]; assay type: functional
[4] = Luminescence Cell-Based Dose Confirmation HTS to Identify Activators of 5'UTR Stem-Loop Driven Alpha-Synuclein mRNA Translation in H4 Neuroglioblastoma Cells. [Related pubchem assays: 1829 (Project Summary), 1814 (Primary HTS)]; assay type: functional
[5] = Luminescence Cell-Based Dose Response HTS to Identify Activators of Luciferase Translation or Activity in H4 […] Cells. [Related pubchem assays: 1829 (Project Summary), 1814 (Primary HTS)]; assay type: functional
H4 = experiment: Luminescence Cell-Based Dose Response HTS to Identify Activators of 5'UTR Stem-Loop Driven Prion Protein mRNA Translation in H4 Neuroglioblastoma Cells. [Related pubchem assays: 1829 (Project Summary), 1814 (Primary HTS)]; assay type: functional; settings: Homo sapiens
[6] = Luminescence Cell-Based Dose Response to Identify Activators of Luciferase Translation or Activity in H4-C Neuroglioblastoma Cells. [Related pubchem assays: 1829 (Project Summary), 1814 (Primary HTS)]; assay type: functional
[7] = Luminescence Cell-Based Dose Confirmation to Identify Activators of 5'UTR Stem-Loop Driven Alpha-Synuclein mRNA Translation in H4 Neuroglioblastoma Cells. [Related pubchem assays: 1829 (Project Summary), 1814 (Primary HTS)]; assay type: functional
HEK293 [8] = experiment: cells; assay type: functional, cell-based; settings: Homo sapiens
[9] = biological target: T2, Nuclear receptor subfamily 0 group B member 1 (Homo sapiens, UniProt P51843); experiment: Luminescence-based cell-based high throughput dose response assay for inhibitors of the orphan nuclear receptor subfamily 0, group B, member 1 (DAX1; NR0B1). [Related pubchem assays (depositor defined):AID504766, AID504790]; assay type: functional
T2 sequence (P51843 whole entry): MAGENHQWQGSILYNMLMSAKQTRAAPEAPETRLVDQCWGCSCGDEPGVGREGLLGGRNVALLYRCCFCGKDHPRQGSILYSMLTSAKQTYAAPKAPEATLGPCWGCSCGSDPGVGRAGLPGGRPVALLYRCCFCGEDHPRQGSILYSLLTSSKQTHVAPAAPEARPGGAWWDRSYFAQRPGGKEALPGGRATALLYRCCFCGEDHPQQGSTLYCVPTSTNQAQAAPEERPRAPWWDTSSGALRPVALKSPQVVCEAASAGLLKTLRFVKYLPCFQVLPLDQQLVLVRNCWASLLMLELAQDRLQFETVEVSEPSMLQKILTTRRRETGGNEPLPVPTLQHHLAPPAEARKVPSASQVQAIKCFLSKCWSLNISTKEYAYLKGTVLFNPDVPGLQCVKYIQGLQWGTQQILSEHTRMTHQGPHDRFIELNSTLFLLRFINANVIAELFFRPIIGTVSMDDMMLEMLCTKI

[10] = viability loss in HepG2 hepatoma cells – cell-based, ATP luminescence, cherry-pick, activator set 2, cytotoxicity control, dose response (AID 1053143); assay type: functional
Beta-galactosidase = Beta-galactosidase (Escherichia coli, UniProt Q8VNN2); experiment: PubChem AID 485352; assay type: functional
Chain of Beta-galactosidase (Q8VNN2 whole entry): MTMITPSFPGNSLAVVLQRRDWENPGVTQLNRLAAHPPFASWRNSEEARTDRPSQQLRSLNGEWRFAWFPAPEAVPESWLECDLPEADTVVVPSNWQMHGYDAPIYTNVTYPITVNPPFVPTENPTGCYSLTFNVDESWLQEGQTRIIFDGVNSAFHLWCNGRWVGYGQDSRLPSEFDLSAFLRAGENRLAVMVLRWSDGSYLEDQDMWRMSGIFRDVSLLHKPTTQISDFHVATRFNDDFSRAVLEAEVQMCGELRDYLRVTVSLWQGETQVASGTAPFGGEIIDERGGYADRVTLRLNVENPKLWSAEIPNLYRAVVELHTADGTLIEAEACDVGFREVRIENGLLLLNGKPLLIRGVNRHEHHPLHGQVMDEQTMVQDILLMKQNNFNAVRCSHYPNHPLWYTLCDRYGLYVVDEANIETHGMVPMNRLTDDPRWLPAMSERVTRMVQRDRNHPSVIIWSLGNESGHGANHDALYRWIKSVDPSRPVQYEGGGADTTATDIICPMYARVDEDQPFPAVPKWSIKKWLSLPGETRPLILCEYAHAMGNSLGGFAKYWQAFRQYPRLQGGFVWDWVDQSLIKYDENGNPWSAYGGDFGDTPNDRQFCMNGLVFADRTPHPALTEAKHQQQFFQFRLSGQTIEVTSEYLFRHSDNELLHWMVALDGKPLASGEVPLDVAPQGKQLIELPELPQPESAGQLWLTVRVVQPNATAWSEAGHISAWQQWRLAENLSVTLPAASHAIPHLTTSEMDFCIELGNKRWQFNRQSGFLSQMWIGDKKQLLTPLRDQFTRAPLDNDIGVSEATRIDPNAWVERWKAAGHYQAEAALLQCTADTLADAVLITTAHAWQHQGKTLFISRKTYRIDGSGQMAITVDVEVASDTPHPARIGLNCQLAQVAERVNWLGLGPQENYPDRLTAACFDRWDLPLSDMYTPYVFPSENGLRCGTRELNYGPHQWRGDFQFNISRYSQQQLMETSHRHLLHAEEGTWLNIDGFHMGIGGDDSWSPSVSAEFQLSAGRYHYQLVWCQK

[11] = biological target: T3, Type-1 angiotensin II receptor (Homo sapiens, UniProt P30556); experiment: antagonism of angiotensin II type 1 receptor – cell-based, uHTS hits, selectivity assay for APJ receptor antagonist project, dose response (AID 463214); assay type: functional;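 note: antagonist potency against angiotensin II stimulated AT1 response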
T3 sequence (P30556 whole entry): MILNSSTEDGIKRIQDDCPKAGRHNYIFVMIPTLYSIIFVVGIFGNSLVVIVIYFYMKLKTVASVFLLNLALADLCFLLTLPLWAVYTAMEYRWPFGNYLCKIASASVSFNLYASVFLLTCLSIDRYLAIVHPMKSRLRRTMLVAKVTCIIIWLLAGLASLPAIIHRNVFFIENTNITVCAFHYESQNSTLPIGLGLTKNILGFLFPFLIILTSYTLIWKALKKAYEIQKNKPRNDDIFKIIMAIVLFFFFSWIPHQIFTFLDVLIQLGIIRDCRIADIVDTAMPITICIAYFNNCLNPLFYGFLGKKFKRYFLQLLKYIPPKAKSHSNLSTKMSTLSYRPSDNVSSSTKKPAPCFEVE

[12] = viability of uninfected HEp-2 cells – cell-based, HTS, cytotoxicity control for RSV inhibitor project, dose response (AID 2410); assay type: functional; settings: human respiratory syncytial virus
[13] = THP-1 cell cytotoxicity, dose response, cytotoxicity control for non-replicating M. tuberculosis project (AID 489025); assay type: functional
[14] = HepG2 cell cytotoxicity, dose response, cytotoxicity control for non-replicating M. tuberculosis project (AID 489018); assay type: functional; settings: Mycobacterium tuberculosis
[15] = Vero E6 cell cytotoxicity, dose response, cytotoxicity control for non-replicating M. tuberculosis project, secondary assay (AID 492998); assay type: functional, VeroE6; settings: Vero C1008
cells = assay type: functional
Insulin-degrading enzyme [16] = biological target: T4, Insulin-degrading enzyme (Homo sapiens, UniProt P14735); experiment: recombinant IDE activation, cell-free – biochemical, fluorescence polarization, counter-screen for IDE activator project, dose response (AID 588681)
T4 sequence (P14735 whole entry): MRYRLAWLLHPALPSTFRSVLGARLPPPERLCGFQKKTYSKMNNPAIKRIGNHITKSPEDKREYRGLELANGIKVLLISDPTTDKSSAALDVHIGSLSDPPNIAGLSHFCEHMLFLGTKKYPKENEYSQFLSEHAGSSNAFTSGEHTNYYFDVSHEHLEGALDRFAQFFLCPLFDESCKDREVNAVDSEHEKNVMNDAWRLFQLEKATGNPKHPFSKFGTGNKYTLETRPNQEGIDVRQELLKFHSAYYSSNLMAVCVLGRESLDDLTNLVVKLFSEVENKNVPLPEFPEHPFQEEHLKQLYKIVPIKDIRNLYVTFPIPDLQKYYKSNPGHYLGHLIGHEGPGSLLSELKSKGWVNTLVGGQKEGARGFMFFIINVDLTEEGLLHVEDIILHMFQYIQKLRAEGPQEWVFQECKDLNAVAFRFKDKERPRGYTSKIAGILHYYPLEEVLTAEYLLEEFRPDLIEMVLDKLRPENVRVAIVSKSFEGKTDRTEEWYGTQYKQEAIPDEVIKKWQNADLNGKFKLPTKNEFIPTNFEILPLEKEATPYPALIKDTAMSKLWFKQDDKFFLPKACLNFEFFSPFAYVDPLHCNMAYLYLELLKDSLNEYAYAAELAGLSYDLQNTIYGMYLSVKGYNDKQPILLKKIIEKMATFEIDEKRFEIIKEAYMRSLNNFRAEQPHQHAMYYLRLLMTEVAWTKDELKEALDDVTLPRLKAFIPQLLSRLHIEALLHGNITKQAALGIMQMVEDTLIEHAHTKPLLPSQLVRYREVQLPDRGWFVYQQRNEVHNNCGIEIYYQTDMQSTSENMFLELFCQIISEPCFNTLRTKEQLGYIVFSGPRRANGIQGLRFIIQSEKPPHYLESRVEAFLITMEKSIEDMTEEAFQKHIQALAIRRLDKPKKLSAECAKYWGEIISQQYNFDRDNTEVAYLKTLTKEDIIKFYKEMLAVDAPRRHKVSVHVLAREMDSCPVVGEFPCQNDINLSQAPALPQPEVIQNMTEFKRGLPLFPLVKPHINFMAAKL

Insulin-degrading enzyme [17] = biological target: T4, Insulin-degrading enzyme; experiment: cellular IDE activation of Abeta substrate cleavage – fluorescence polarization, HEK cells, dose response (AID 588439); assay type: functional, cell-based
HEK293 [18] = experiment: membrane integrity loss in HEK cells – cell-based, fluorescence, cytotoxicity control for IDE activator project, dose response (AID 588440); assay type: functional; settings: Homo sapiens;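 note: cytotoxicity by LDH release measuring loss of membrane integrity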
HEK293 [19] = experiment: optical interference in Abeta FP readout, dose response, artefact control for IDE activator project, biochemical, fluorescence polarization (AID 588442); assay type: functional, cell-based; settings: Homo sapiens
A-375 = experiment: proliferation inhibition in MITF-low A375 cells – cell-based, cherry-pick samples, set 2, counter-screen for MITF modulator project, dose response (AID 540335); assay type: functional; settings: Homo sapiens
DNA topoisomerase = DNA topoisomerase (Yersinia pestis, UniProt A0A2S9PM60); experiment: Yersinia topoisomerase I cleavage product accumulation – biochemical, cherry-pick, dose response (AID 588525)
Chain of DNA topoisomerase (A0A2S9PM60 whole entry): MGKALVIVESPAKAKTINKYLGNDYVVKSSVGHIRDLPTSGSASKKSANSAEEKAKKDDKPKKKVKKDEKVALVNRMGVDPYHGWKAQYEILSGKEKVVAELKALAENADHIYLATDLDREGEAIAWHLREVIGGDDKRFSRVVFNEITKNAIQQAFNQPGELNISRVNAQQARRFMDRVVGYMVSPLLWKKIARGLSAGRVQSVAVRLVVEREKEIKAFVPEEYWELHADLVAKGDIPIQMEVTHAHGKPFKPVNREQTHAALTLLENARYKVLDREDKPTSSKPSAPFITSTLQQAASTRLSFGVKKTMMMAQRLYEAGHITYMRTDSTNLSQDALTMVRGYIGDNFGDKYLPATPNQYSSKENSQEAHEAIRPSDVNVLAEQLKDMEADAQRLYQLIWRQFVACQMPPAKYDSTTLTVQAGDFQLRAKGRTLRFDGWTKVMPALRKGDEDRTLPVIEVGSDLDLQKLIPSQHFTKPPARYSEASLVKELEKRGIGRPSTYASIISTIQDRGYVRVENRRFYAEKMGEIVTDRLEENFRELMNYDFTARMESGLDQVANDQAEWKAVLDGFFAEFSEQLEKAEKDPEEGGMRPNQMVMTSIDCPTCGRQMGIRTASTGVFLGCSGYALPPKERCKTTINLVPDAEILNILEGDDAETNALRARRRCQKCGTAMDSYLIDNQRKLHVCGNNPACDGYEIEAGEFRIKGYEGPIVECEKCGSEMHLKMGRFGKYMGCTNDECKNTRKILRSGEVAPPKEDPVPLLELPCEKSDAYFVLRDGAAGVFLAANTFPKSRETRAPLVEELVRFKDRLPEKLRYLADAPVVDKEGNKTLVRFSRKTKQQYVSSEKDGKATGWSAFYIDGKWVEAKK

Chain of Large T antigen (P03070 whole entry): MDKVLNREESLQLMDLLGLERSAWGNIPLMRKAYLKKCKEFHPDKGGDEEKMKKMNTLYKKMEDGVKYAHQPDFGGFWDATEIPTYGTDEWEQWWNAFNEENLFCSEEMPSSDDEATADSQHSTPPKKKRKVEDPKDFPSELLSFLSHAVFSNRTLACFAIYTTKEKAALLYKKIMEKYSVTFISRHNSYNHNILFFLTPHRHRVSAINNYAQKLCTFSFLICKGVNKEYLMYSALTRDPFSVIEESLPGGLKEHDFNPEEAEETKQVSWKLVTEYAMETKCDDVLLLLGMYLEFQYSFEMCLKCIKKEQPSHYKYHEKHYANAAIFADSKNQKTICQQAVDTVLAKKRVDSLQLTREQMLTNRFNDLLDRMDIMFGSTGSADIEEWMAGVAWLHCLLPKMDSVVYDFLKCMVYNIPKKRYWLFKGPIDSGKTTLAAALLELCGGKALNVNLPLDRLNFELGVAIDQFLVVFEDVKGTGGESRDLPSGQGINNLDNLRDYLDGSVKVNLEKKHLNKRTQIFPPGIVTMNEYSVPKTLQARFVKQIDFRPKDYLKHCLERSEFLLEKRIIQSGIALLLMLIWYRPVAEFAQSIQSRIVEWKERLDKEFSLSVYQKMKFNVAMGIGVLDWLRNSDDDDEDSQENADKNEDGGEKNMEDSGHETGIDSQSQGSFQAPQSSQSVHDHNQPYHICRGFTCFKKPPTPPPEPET

## C=CCSC1=NC(=O)/C(=C/c2cccs2)S1
Large T antigen
  IC50: 40.8 µM (active)
[1]
  AC50: 8.3 µM (active)
[2]
  IC50: 29.7 µM (active)

## O=C(C1=NN(c2ccccc2)C2C(=O)N(c3ccc(Cl)cc3)C(=O)C12)c1ccccc1 (configuration not stated)
CHO
  IC50: > 49.7 µM (inactive)
Beta Lactamase
  IC50: 11.8 µM (inactive)

## O=C(Nc1ncccc1O)c1ccc2c(c1)OCCO2
[3]
  EC50: 7.24 µM (active)
[4]
  EC50: 0.185 µM (active)
[5]
  EC50: 0.155 µM (active)
H4
  EC50: 0.139 µM (active)
[6]
  EC50: > 12 µM (not active)
[7]
  EC50: 0.329 µM (active)
HEK293 [8]
  IC50: 1.59 µM (active)
[9]
  IC50: > 67.5 µM (inactive)
[10]
  AC50: 12 µM (active)

## CN1/C(=c2/s/c(=C3/C(=O)N(c4ccccc4)N=C3Nc3ccccc3)n(C)c2=O)C(C)(C)c2ccccc21
Beta-galactosidase
  EC50: 39.9 µM (active)
[11]
  IC50: 27 µM (not active)

## CN(C)CCCN(C(=O)CCc1ccccc1)c1nc2ccc(Br)cc2s1
[12]
  CC50: 15.7 µM (active)
[13]
  CC50: 17.6 µM (active)
[14]
  CC50: 13.6 µM (active)
[15]
  CC50: 10.3 µM (active)
cells
  IC50: 12.7 µM (active)
Insulin-degrading enzyme [16]
  EC50: > 54.7 µM (inactive)
Insulin-degrading enzyme [17]
  EC50: 29.5 µM (inactive)
HEK293 [18]
  IC50: 25.4 µM (inactive)
HEK293 [19]
  EC50: > 55.9 µM (inactive)
A-375
  AC50: 18.6 µM (active)

## Cc1ccc(-n2c(C)cc(C(=O)Cn3nc(C(=O)O)c4ccccc4c3=O)c2C)cc1
DNA topoisomerase
  AC50: 5.3 µM (active)
